Data on 14 compounds can be found in the kinase profiling compilation of Christmann-Franck et al. (2016).

FGFR1 (human), sequence (P11362 whole entry, looked up): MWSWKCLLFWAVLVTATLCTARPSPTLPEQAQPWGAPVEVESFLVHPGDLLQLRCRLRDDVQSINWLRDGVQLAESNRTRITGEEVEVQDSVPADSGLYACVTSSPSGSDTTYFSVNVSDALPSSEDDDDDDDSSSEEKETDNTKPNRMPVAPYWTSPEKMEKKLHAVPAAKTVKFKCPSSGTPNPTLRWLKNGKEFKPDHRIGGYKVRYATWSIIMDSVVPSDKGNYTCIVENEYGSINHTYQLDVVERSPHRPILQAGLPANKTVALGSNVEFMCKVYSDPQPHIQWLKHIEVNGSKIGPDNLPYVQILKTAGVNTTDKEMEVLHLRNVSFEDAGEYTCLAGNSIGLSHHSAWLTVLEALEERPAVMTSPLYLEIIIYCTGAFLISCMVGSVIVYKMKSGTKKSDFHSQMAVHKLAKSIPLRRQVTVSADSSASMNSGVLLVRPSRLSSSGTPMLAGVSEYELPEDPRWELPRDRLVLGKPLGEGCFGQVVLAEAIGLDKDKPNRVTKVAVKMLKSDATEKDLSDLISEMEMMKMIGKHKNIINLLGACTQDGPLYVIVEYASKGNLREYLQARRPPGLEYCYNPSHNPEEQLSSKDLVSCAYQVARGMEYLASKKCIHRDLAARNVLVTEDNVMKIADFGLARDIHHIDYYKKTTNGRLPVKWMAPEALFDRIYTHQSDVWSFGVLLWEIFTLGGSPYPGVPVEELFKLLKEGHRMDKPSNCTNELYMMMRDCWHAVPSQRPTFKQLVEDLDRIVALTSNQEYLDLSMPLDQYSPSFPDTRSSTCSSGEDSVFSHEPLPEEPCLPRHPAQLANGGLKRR

The first assay deals with PRKAA1 (human) (UniProt Q13131). Particulars: compound 10.0 µM.
PRKAA1 (human), sequence (Q13131 whole entry, looked up): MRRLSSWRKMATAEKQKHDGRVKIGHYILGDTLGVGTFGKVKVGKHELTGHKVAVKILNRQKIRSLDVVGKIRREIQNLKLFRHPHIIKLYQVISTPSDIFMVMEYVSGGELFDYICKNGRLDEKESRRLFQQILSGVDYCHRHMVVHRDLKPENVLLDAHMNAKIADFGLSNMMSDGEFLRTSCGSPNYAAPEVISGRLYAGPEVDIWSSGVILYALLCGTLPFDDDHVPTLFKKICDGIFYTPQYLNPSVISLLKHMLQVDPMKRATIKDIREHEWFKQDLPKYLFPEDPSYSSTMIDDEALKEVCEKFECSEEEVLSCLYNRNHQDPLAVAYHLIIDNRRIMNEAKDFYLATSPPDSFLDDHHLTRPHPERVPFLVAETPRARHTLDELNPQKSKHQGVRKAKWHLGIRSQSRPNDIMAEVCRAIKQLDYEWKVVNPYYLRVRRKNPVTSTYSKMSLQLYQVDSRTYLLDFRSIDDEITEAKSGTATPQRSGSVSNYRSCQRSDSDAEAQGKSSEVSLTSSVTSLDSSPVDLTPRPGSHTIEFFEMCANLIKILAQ
With `CC(C)(C)n1nc(-c2ccc(Cl)cc2)c2c(N)ncnc21`, the inhibition was determined as 0%.
The same measure, in the same setting: under `Cc1cc(F)c(Nc2ncnc3cc(OCc4ccccc4)ccc23)cc1O` stands 13%.
The same measure, in the same setting: the value for `O=S(=O)(c1cccc2c(Cl)cccc12)N1CCCNCC1` was 0%; that for `CC(C)[C@H](CO)Nc1nc(Nc2cc(N)cc(Cl)c2)c2ncn(C(C)C)c2n1` was 5%.
On the same count and under the same terms, the value for `Cn1cc(/C=C2/C(=O)Nc3cccnc32)c2ccccc21` was 32%; that for `COc1ccc(Cl)cc1NC(=O)Nc1cc(C)nc2ccccc12` was 0%.
The compound `Cc1ccccc1C(=O)c1ccc(Nc2ccc(Br)cc2N)cc1Cl` returned an inhibition of 0%.
Still for that read-out and setting: under `CCN(CC)CCNC(=O)c1c(C)[nH]c(/C=C2\C(=O)Nc3ccc(F)cc32)c1C` stands 82%; under `CN(C)CCCn1cc(C2=C(c3c[nH]c4ccccc34)C(=O)NC2=O)c2ccccc21`, 11%; under `O=S(=O)(NCCNC/C=C/c1ccc(Br)cc1)c1cccc2cnccc12`, 17%.
Same read-out and setting: under `O=S(=O)(c1cccc2cnccc12)N1CCCNCC1` stands 0%; under `CCN(CC)CCCCN1c2ccccc2Oc2ccc(Cl)cc21`, 0%.
The same measure, in the same setting: under `O=S(=O)(c1cccc2c(O)nccc12)N1CCCNCC1` stands 0%; under `CO[C@@H]1[C@H](N(C)C(=O)c2ccccc2)C[C@H]2O[C@]1(C)n1c3ccccc3c3c4c(c5c6ccccc6n2c5c31)C(=O)NC4`, 64%.

A further assay deals with PRKACA (mouse). Particulars: compound 10.0 µM; accession and sequence are those of the human protein.
On to `CC(C)(C)n1nc(-c2ccc(Cl)cc2)c2c(N)ncnc21`, for which the inhibition turned out to be 30%.
The same measure, in the same setting: the value for `Cc1cc(F)c(Nc2ncnc3cc(OCc4ccccc4)ccc23)cc1O` was 2%.
On to `O=S(=O)(c1cccc2c(Cl)cccc12)N1CCCNCC1`, for which the inhibition worked out at 3%.
The same measure, in the same setting: the value for `CC(C)[C@H](CO)Nc1nc(Nc2cc(N)cc(Cl)c2)c2ncn(C(C)C)c2n1` was 13%; that for `Cn1cc(/C=C2/C(=O)Nc3cccnc32)c2ccccc21` was 0%; that for `COc1ccc(Cl)cc1NC(=O)Nc1cc(C)nc2ccccc12` was 5%.
`Cc1ccccc1C(=O)c1ccc(Nc2ccc(Br)cc2N)cc1Cl` yielded an inhibition of 4%.
On the same count and under the same terms, under `CCN(CC)CCNC(=O)c1c(C)[nH]c(/C=C2\C(=O)Nc3ccc(F)cc32)c1C` stands 2%; under `CN(C)CCCn1cc(C2=C(c3c[nH]c4ccccc34)C(=O)NC2=O)c2ccccc21`, 26%.
The same measure, in the same setting: the value for `CCN(CC)CCCCN1c2ccccc2Oc2ccc(Cl)cc21` was 0%; that for `O=S(=O)(c1cccc2c(O)nccc12)N1CCCNCC1` was 19%.
`CO[C@@H]1[C@H](N(C)C(=O)c2ccccc2)C[C@H]2O[C@]1(C)n1c3ccccc3c3c4c(c5c6ccccc6n2c5c31)C(=O)NC4`: the inhibition was 63%.

For another assay, the target named is PIM1 (human) (UniProt P11309). Particulars: compound 10.0 µM.
PIM1 (human), sequence (P11309 whole entry, looked up): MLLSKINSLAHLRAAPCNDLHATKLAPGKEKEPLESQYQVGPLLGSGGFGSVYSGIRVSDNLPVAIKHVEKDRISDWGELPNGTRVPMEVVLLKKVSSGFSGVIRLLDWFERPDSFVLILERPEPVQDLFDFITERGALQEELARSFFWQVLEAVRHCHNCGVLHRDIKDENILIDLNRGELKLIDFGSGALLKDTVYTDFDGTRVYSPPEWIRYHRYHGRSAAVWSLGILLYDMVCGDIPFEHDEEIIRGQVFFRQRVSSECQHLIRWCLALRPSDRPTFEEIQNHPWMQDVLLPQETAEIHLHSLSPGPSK
As for `CC(C)(C)n1nc(-c2ccc(Cl)cc2)c2c(N)ncnc21`, the inhibition was determined as 4%.
Same read-out and setting: under `Cc1cc(F)c(Nc2ncnc3cc(OCc4ccccc4)ccc23)cc1O` stands 1%.
`O=S(=O)(c1cccc2c(Cl)cccc12)N1CCCNCC1` yielded an inhibition of 31%.
Same read-out and setting: under `CC(C)[C@H](CO)Nc1nc(Nc2cc(N)cc(Cl)c2)c2ncn(C(C)C)c2n1` stands 6%.
As for `Cn1cc(/C=C2/C(=O)Nc3cccnc32)c2ccccc21`, the inhibition was found to be 0%.
On the same count and under the same terms, under `COc1ccc(Cl)cc1NC(=O)Nc1cc(C)nc2ccccc12` stands 14%.
Still for that read-out and setting: under `Cc1ccccc1C(=O)c1ccc(Nc2ccc(Br)cc2N)cc1Cl` stands 0%.
Still for that read-out and setting: the value for `CCN(CC)CCNC(=O)c1c(C)[nH]c(/C=C2\C(=O)Nc3ccc(F)cc32)c1C` was 0%; that for `O=S(=O)(NCCNC/C=C/c1ccc(Br)cc1)c1cccc2cnccc12` was 0%.
In turn, `O=S(=O)(c1cccc2cnccc12)N1CCCNCC1` displayed an inhibition of 4%.
Regarding `O=S(=O)(c1cccc2c(O)nccc12)N1CCCNCC1`, the inhibition worked out at 19%.
Still for that read-out and setting: the value for `CO[C@@H]1[C@H](N(C)C(=O)c2ccccc2)C[C@H]2O[C@]1(C)n1c3ccccc3c3c4c(c5c6ccccc6n2c5c31)C(=O)NC4` was 73%.

The next assay deals with PRKAA2 (human) (UniProt P54646). Particulars: compound 10.0 µM.
PRKAA2 (human), sequence (P54646 whole entry, looked up): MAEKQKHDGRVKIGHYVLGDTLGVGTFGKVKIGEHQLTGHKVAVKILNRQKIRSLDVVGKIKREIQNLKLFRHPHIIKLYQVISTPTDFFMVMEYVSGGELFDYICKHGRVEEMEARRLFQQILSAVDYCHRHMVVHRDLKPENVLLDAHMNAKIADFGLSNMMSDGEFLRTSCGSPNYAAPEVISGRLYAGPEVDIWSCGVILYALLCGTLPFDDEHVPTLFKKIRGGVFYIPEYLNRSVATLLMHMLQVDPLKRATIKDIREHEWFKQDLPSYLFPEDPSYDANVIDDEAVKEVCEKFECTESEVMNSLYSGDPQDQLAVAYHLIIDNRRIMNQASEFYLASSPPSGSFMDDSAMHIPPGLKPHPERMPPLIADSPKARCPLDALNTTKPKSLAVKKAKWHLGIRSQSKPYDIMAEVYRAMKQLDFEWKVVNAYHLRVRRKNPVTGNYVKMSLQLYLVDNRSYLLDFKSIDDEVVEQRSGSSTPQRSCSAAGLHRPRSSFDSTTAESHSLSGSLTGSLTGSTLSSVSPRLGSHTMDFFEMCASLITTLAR
For `CC(C)(C)n1nc(-c2ccc(Cl)cc2)c2c(N)ncnc21`, the inhibition worked out at 0%.
`Cc1cc(F)c(Nc2ncnc3cc(OCc4ccccc4)ccc23)cc1O`: the inhibition came to 0%.
On the same count and under the same terms, under `O=S(=O)(c1cccc2c(Cl)cccc12)N1CCCNCC1` stands 0%; under `CC(C)[C@H](CO)Nc1nc(Nc2cc(N)cc(Cl)c2)c2ncn(C(C)C)c2n1`, 3%.
On the same count and under the same terms, under `Cn1cc(/C=C2/C(=O)Nc3cccnc32)c2ccccc21` stands 22%; under `COc1ccc(Cl)cc1NC(=O)Nc1cc(C)nc2ccccc12`, 0%.
Still for that read-out and setting: under `Cc1ccccc1C(=O)c1ccc(Nc2ccc(Br)cc2N)cc1Cl` stands 0%; under `CCN(CC)CCNC(=O)c1c(C)[nH]c(/C=C2\C(=O)Nc3ccc(F)cc32)c1C`, 84%; under `CN(C)CCCn1cc(C2=C(c3c[nH]c4ccccc34)C(=O)NC2=O)c2ccccc21`, 20%.
For the compound `O=S(=O)(NCCNC/C=C/c1ccc(Br)cc1)c1cccc2cnccc12`, the inhibition turned out to be 22%.
Same read-out and setting: the value for `O=S(=O)(c1cccc2cnccc12)N1CCCNCC1` was 0%.
Same read-out and setting: under `CCN(CC)CCCCN1c2ccccc2Oc2ccc(Cl)cc21` stands 0%.
Same read-out and setting: the value for `O=S(=O)(c1cccc2c(O)nccc12)N1CCCNCC1` was 0%.

For the next assay, the target named is AKT1 (human) (UniProt P31749). Particulars: compound 10.0 µM.
AKT1 (human), sequence (P31749 whole entry, looked up): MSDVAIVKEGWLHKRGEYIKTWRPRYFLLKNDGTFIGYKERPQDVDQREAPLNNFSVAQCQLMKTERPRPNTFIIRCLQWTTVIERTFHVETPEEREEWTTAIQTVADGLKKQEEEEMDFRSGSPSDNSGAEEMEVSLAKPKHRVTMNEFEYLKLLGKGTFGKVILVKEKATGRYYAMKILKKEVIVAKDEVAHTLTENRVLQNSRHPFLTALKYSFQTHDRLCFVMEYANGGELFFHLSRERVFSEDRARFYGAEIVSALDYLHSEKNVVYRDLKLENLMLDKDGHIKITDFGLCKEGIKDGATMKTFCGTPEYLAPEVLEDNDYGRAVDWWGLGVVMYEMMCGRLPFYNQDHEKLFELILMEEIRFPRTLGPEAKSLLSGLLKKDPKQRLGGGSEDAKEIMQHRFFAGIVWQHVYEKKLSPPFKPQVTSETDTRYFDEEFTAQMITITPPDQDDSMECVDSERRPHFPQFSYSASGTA
`CC(C)(C)n1nc(-c2ccc(Cl)cc2)c2c(N)ncnc21` returned an inhibition of 0%.
On the same count and under the same terms, the value for `Cc1cc(F)c(Nc2ncnc3cc(OCc4ccccc4)ccc23)cc1O` was 0%; that for `O=S(=O)(c1cccc2c(Cl)cccc12)N1CCCNCC1` was 2%.
Same read-out and setting: under `CC(C)[C@H](CO)Nc1nc(Nc2cc(N)cc(Cl)c2)c2ncn(C(C)C)c2n1` stands 0%; under `Cn1cc(/C=C2/C(=O)Nc3cccnc32)c2ccccc21`, 0%.
On the same count and under the same terms, under `COc1ccc(Cl)cc1NC(=O)Nc1cc(C)nc2ccccc12` stands 0%.
The compound `Cc1ccccc1C(=O)c1ccc(Nc2ccc(Br)cc2N)cc1Cl` yielded an inhibition of 0%.
The same measure, in the same setting: under `CCN(CC)CCNC(=O)c1c(C)[nH]c(/C=C2\C(=O)Nc3ccc(F)cc32)c1C` stands 28%.
The same measure, in the same setting: the value for `CN(C)CCCn1cc(C2=C(c3c[nH]c4ccccc34)C(=O)NC2=O)c2ccccc21` was 5%.
Same read-out and setting: the value for `O=S(=O)(NCCNC/C=C/c1ccc(Br)cc1)c1cccc2cnccc12` was 21%.
For `O=S(=O)(c1cccc2cnccc12)N1CCCNCC1`, the inhibition turned out to be 0%.
For the compound `CCN(CC)CCCCN1c2ccccc2Oc2ccc(Cl)cc21`, the inhibition was 0%.
`O=S(=O)(c1cccc2c(O)nccc12)N1CCCNCC1`: the inhibition came to 0%.
The same measure, in the same setting: under `CO[C@@H]1[C@H](N(C)C(=O)c2ccccc2)C[C@H]2O[C@]1(C)n1c3ccccc3c3c4c(c5c6ccccc6n2c5c31)C(=O)NC4` stands 55%.

The next assay concerns the target FGFR1 (human) (UniProt P11362). Particulars: compound 10.0 µM.
`CC(C)(C)n1nc(-c2ccc(Cl)cc2)c2c(N)ncnc21` returned an inhibition of 43%.
Compound `Cc1cc(F)c(Nc2ncnc3cc(OCc4ccccc4)ccc23)cc1O` had an inhibition of 10%.
Still for that read-out and setting: under `O=S(=O)(c1cccc2c(Cl)cccc12)N1CCCNCC1` stands 1%.
Same read-out and setting: the value for `Cn1cc(/C=C2/C(=O)Nc3cccnc32)c2ccccc21` was 26%; that for `COc1ccc(Cl)cc1NC(=O)Nc1cc(C)nc2ccccc12` was 7%; that for `Cc1ccccc1C(=O)c1ccc(Nc2ccc(Br)cc2N)cc1Cl` was 11%.
For `CCN(CC)CCNC(=O)c1c(C)[nH]c(/C=C2\C(=O)Nc3ccc(F)cc32)c1C`, the inhibition stood at 50%.
Same read-out and setting: the value for `CN(C)CCCn1cc(C2=C(c3c[nH]c4ccccc34)C(=O)NC2=O)c2ccccc21` was 50%; that for `O=S(=O)(NCCNC/C=C/c1ccc(Br)cc1)c1cccc2cnccc12` was 14%.
On the same count and under the same terms, under `O=S(=O)(c1cccc2cnccc12)N1CCCNCC1` stands 4%; under `CCN(CC)CCCCN1c2ccccc2Oc2ccc(Cl)cc21`, 0%.

Broadly, the inhibition is the change of the read-out against control, counted positive when it falls. A higher inhibition goes with strong suppression.
